This passage reports IC50 results from US9227971B2, “Pyrazolo[1,5-a]pyrimidine compounds as mTOR inhibitors” (Merck Sharp & Dohme Corp., priority 2010, dated 2016).

Read-outs that look alike come from different tables or passages of the source.

The test system of assay [1] is phosphorylated 4E-BP1 Thr37/46 (p4E-BP1 Thr37/46), mTORC1 activity, PC3 cells. The assay can be described thus: mTOR target engagement assay, immunofluorescent cell-based, p4E-BP1 Thr37/46 readout (mTORC1 activity). As to conditions: read-out: p4E-BP1 Thr37/46 IC50. A digest of the protocol:
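PTEN-mutant PC3 prostate cells were treated with serially diluted compound in 5% FBS F12 medium (0.25% DMSO) for ninety minutes at 37° C, glyoxal-fixed, then immunostained overnight at 4° C for p4E-BP1 Thr37/46 with an Alexa Fluor 488 secondary. IC50 came from four-parameter fits of fluorescence, DMSO-only wells defining 100%.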

Assay [2] has as its system phosphorylated AKT Ser473 (pAKT S473), mTORC2 activity, PC3 cells. The assay can be described thus: mTOR target engagement assay, immunofluorescent cell-based, pAKT S473 readout (mTORC2 activity). A digest of the protocol: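 After blocking, cells were stained overnight at 4 °C with anti-pAKT S473 antibody, then a fluorescent secondary; inhibition was read as reduced fluorescence intensity.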

Where [3] appears, read: PC3 cells, compound treatment ninety minutes at 37° C.
The mark [4] stands for this setting: Homo sapiens, PC-3, Table 3-1, PC3 cells.
The mark [5] stands for this setting: Homo sapiens, PC-3, Table 7-9 (no column head printed; column order as in the neighbouring tables), PC3 cells.
Setting [6] is: Homo sapiens, PC-3, Table 6-1, PC3 cells.
Where [7] appears, read: Homo sapiens, PC-3, PC3 cells, compound treatment ninety minutes at 37° C.

Regarding `CC(=O)c1c([C@@H]2C[C@H]3CC[C@@H](C2)N3C(=O)c2nnc[nH]2)nc2c(-c3ccc4ccc(F)cc4c3)cnn2c1N` [Compound 1.1.38, 1-(5-((1R,3s,5S)-8-(4H-1,2,4-triazole-3-carbonyl)-8-azabicyclo[3.2.1]octan-3-yl)-7-amino-3-(7-fluoronaphthalen-2-yl)pyrazolo[1,5-a]pyrimidin-6-yl)ethanone], the figures for the IC50 in assay [1] (setting [3]) and in assay [2] (setting [3]) were 1 to 100 nM and 100 to 1000 nM, respectively.

`CS(=O)(=O)c1c([C@@H]2C[C@H]3CC[C@@H](C2)N3C(=O)CO)nc2c(-c3ccc(-c4ccc(F)cc4F)nc3)cnn2c1N` [Compound 3.128, 1-((1R,3s,5S)-3-(7-amino-3-(6-(2,4-difluorophenyl)pyridin-3-yl)-6-(methylsulfonyl)pyrazolo[1,5-a]pyrimidin-5-yl)-8-azabicyclo[3.2.1]octan-8-yl)-2-hydroxyethanone]: the IC50 in assay [1] (setting [4]) and in assay [2] (setting [4]) was 100 to 1000 nM throughout.

As for `CC(=O)c1c([C@@H]2C[C@H]3CC[C@@H](C2)N3C(=O)c2nnc[nH]2)nc2c(-c3ccc(C(O)CO)nc3)cnn2c1N` (stereo partly drawn) [Compound 7.52, 1-(5-((1R,3s,5S)-8-(4H-1,2,4-triazole-3-carbonyl)-8-azabicyclo[3.2.1]octan-3-yl)-7-amino-3-(6-(1,2-dihydroxyethyl)pyridin-3-yl)pyrazolo[1,5-a]pyrimidin-6-yl)ethanone], the IC50 in assay [1] (setting [5]) and in assay [2] (setting [5]) was 1000 to 10000 nM each time.

For `CS(=O)(=O)c1c([C@@H]2C[C@H]3CC[C@@H](C2)N3C(=O)CO)nc2c(-c3ccc(-c4ncc[nH]4)nc3)cnn2c1N` [Compound 6.6, 1-((1R,3s,5S)-3-(3-(6-(1H-imidazol-2-yl)pyridin-3-yl)-7-amino-6-(methylsulfonyl)pyrazolo [1,5-a]pyrimidin-5-yl)-8-azabicyclo[3.2.1]octan-8-yl)-2-hydroxyethanone], the IC50 in assay [1] (setting [6]) and in assay [2] (setting [6]) was 1 to 100 nM throughout.

Turning to `CCOc1ccc(-c2ccc(-c3cnn4c(N)c(C(C)=O)c([C@@H]5C[C@H]6CC[C@@H](C5)N6C(=O)c5nnc[nH]5)nc34)cn2)cc1` [Compound 1.1.73, 1-(5-((1R,3s,5S)-8-(4H-1,2,4-triazole-3-carbonyl)-8-azabicyclo[3.2.1]octan-3-yl)-7-amino-3-(6-(4-ethoxyphenyl)pyridin-3-yl)pyrazolo[1,5-a]pyrimidin-6-yl)ethanone], the IC50 in assay [1] (setting [7]) and in assay [2] (setting [7]) was 1 to 100 nM each time.

In the case of `CS(=O)(=O)c1c([C@@H]2C[C@H]3CC[C@@H](C2)N3C(=O)CO)nc2c(-c3ccc(-n4cccn4)nc3)cnn2c1N` [Compound 3.153, 1-((1R,3s,5S)-3-(3-(6-(1H-pyrazol-1-yl)pyridin-3-yl)-7-amino-6-(methylsulfonyl)pyrazolo[1,5-a]pyrimidin-5-yl)-8-azabicyclo[3.2.1]octan-8-yl)-2-hydroxyethanone], the IC50 is 1000 to 10000 nM in assay [1] (setting [4]) and 100 to 1000 nM in assay [2] (setting [4]).

Take `Cc1cnc(-c2ccc(-c3cnn4c(N)c(S(C)(=O)=O)c([C@@H]5C[C@H]6CC[C@@H](C5)N6C(=O)CO)nc34)cn2)s1` [Compound 3.185, 1-((1R,3a,5S)-3-(7-amino-6-(methylsulfonyl)-3-(6-(5-methylthiazol-2-yl)pyridin-3-yl)pyrazolo[1,5-a]pyrimidin-5-yl)-8-azabicyclo[3.2.1]octan-8-yl)-2-hydroxyethanone]: the IC50 in assay [1] (setting [4]) and in assay [2] (setting [4]) was 100 to 1000 nM in each case.

With `CC(=O)c1c([C@@H]2C[C@H]3CC[C@@H](C2)N3C(=O)CO)nc2c(-c3ccc(C)nc3)cnn2c1N` [Compound 1.1.90, 1-((1R,3s,5S)-3-(6-acetyl-7-amino-3-(6-methylpyridin-3-yl)pyrazolo[1,5-a]pyrimidin-5-yl)-8-azabicyclo[3.2.1]octan-8-yl)-2-hydroxyethanone], the IC50 in assay [1] (setting [7]) and in assay [2] (setting [7]) was 1000 to 10000 nM in each case.

For `CC(=O)c1c([C@@H]2C[C@H]3CC[C@@H](C2)N3C(N)=O)nc2c(-c3ccc(-c4cnn(C)c4)nc3)cnn2c1N` [Compound 1.1.175, (1R,3s,5S)-3-(6-acetyl-7-amino-3-(6-(1-methyl-1H-pyrazolo-4-yl)pyridin-3-yl)pyrazolo[1,5-a]pyrimidin-5-yl)-8-azabicyclo[3.2.1]octane-8-carboxamide], the IC50 fell in the range of 100 to 1000 nM in assay [1] (setting [7]) and 1 to 100 nM in assay [2] (setting [7]).

In the case of `COc1ccc2ncc(-c3cnn4c(N)c(C(C)=O)c([C@@H]5C[C@H]6CC[C@@H](C5)N6C(=O)c5nnc[nH]5)nc34)cc2c1` [Compound 1.1.125, 1-(5-((1R,3s,5S)-8-(4H-1,2,4-triazole-3-carbonyl)-8-azabicyclo[3.2.1]octan-3-yl)-7-amino-3-(6-methoxyquinolin-3-yl)pyrazolo[1,5-a]pyrimidin-6-yl)ethanone], the figures for the IC50 in assay [1] (setting [7]) and in assay [2] (setting [7]) were 100 to 1000 nM and 1000 to 10000 nM, respectively.

On to `CS(=O)(=O)c1c([C@@H]2C[C@H]3CC[C@@H](C2)N3C(=O)c2ncccc2O)nc2c(-c3ccc(-c4ccccc4)nc3)cnn2c1N` [Compound 3.13], for which the IC50 in assay [1] (setting [4]) and in assay [2] (setting [4]) was 100 to 1000 nM in each case.

Turning to `CC(=O)c1c([C@@H]2C[C@H]3CC[C@@H](C2)N3C(=O)CO)nc2c(-c3cnc(-c4ccccc4)c(O)c3)cnn2c1N` [Compound 1.1.32, 1-((1R,3s,5S)-3-(6-acetyl-7-amino-3-(5-hydroxy-6-phenylpyridin-3-yl)pyrazolo[1,5-a]pyrimidin-5-yl)-8-azabicyclo[3.2.1]octan-8-yl)-2-hydroxyethanone], the IC50 in assay [1] (setting [7]) and in assay [2] (setting [7]) was 1000 to 10000 nM in each case.

Consider `CC(=O)c1c([C@@H]2C[C@H]3CC[C@@H](C2)N3C(=O)c2nnc[nH]2)nc2c(-c3ccc(-c4nnn(C)n4)nc3)cnn2c1N` [Compound 1.1.63, 1-(5-((1R,3s,5S)-8-(4H-1,2,4-triazole-3-carbonyl)-8-azabicyclo[3.2.1]octan-3-yl)-7-amino-3-(6-(2-methyl-2H-tetrazol-5-yl)pyridin-3-yl)pyrazolo[1,5-a]pyrimidin-6-yl)ethanone], for which the IC50 in assay [1] (setting [7]) and in assay [2] (setting [7]) was 1 to 100 nM throughout.

Turning to `Cc1cnc(-c2ccc(-c3cnn4c(N)c(S(C)(=O)=O)c([C@@H]5C[C@H]6CC[C@@H](C5)N6C(=O)C(N)C(F)(F)F)nc34)cn2)s1` (stereo partly drawn) [Compound 3.188, 2-amino-1-((1R,3s,5S)-3-(7-amino-6-(methylsulfonyl)-3-(6-(5-methylthiazol-2-yl)pyridin-3-yl)pyrazolo[1,5-a]pyrimidin-5-yl)-8-azabicyclo[3.2.1]octan-8-yl)-3,3,3-trifluoropropan-1-one], the IC50 in assay [1] (setting [4]) and in assay [2] (setting [4]) was 1000 to 10000 nM each time.

Take `Nc1c(C2CC2)c([C@@H]2C[C@H]3CC[C@@H](C2)N3C(=O)c2nnc[nH]2)nc2c(-c3ccc(-c4ncc[nH]4)c(F)c3)cnn12` [Compound 6.36, ((1R,3s,5S)-3-(7-amino-6-cyclopropyl-3-(3-fluoro-4-(1H-imidazol-2-yl)phenyl)pyrazolo[1,5-a]pyrimidin-5-yl)-8-azabicyclo[3.2.1]octan-8-yl)(4H-1,2,4-triazol-3-yl)methanone]: the IC50 in assay [1] (setting [6]) and in assay [2] (setting [6]) was 1 to 100 nM each time.

For `Nc1c(C2(O)CC2)c([C@@H]2C[C@H]3CC[C@@H](C2)N3C(=O)c2nc[nH]n2)nc2c(-c3ccc(-c4ccccc4)nc3)cnn12` [Compound 8.39], the IC50 was in the range of 1000 to 10000 nM in assay [1] (Homo sapiens, PC-3, PC3 cells) and 1000 to 10000 nM in assay [2] (Homo sapiens, PC-3, PC3 cells).
